Laboratory results taken from patent US10287305B2, “Substituted piperidine compound and use thereof” (Takeda Pharmaceutical Company Limited, priority 2016, dated 2019).

Biological target: human orexin type 2 receptor (hOX2R) (Homo sapiens (Human), UniProt O43614)
Test: Measurement of orexin type 2 receptor agonist activity (Experimental Example 2-1, FLIPR TETRA, intracellular Ca2+)
Format: cell-based
Conditions: CHO dhfr- cells expressing hOX2R; for Emax: read-out: Emax (%); for Emax at 30 µM: value at 30 uM concentration, orexin B as full agonist = 100%
[1] = agonist activity, 10 nM human orexin B = 100%

Chain of human orexin type 2 receptor (hOX2R) (O43614 whole entry): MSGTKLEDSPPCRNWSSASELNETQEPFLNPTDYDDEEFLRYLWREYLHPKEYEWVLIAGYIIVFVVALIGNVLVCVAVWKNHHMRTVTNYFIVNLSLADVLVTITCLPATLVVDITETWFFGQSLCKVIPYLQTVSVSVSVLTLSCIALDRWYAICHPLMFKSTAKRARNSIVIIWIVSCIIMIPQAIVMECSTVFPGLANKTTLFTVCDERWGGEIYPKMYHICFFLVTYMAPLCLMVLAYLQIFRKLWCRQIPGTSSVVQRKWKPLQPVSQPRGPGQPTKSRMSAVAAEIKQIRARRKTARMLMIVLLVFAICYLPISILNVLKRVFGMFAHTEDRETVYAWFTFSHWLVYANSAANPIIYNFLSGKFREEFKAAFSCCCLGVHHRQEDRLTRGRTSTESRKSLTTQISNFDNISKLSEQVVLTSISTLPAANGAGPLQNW

EC50 (FLIPR TETRA, Fluo-4AM) [nM]	Emax (FLIPR TETRA, Fluo-4AM) [%]	EC50 [1] [nM]	Emax at 30 µM [%]	Structure (SMILES)
7100	72	–	–	CS(=O)(=O)N[C@H]1CCCN(C(=O)C2CC2)[C@H]1CO[C@H]1CC[C@@H](c2ncccn2)CC1 (relative stereo) [Example 328, N-(cis-1-(cyclopropylcarbonyl)-2-(((cis-4-(pyrimidin-2-yl)cyclohexyl)oxy)methyl)piperidin-3-yl)methanesulfonamide]
610	93	–	–	CS(=O)(=O)N[C@H]1CCCN[C@H]1CO[C@H]1CC[C@@H](c2ccccc2Cl)CC1 (relative stereo) [Example 332, N-(cis-2-(((cis-4-(2-chlorophenyl)cyclohexyl)oxy)-methyl)piperidin-3-yl)methanesulfonamide]
27	93	–	–	CC(=O)N1CCC[C@H](NS(C)(=O)=O)[C@@H]1CO[C@H]1CC[C@@H](c2ccccc2Cl)CC1 (relative stereo) [Example 334, N-(cis-1-acetyl-2-(((cis-4-(2-chlorophenyl)cyclohexyl)oxy)-methyl)piperidin-3-yl)methanesulfonamide]
6.1	101	–	–	COC(=O)N1CCC[C@H](NS(C)(=O)=O)[C@@H]1CO[C@H]1CC[C@@H](c2ccccc2Cl)CC1 (relative stereo) [Example 335, methyl cis-2-(((cis-4-(2-chlorophenyl)cyclohexyl)oxy)-methyl)-3-((methylsulfonyl)amino)piperidine-1-carboxylate]
2400	88	–	–	CC(=O)N1CCC[C@H](NS(C)(=O)=O)[C@@H]1COC1CCC(c2ccccc2)C1 (relative stereo) [Example 337, N-(cis-1-acetyl-2-(((3-phenylcyclopentyl)oxy)methyl)-piperidin-3-yl)methanesulfonamide]
490	83	–	–	COC(=O)N1CCC[C@H](NS(C)(=O)=O)[C@@H]1COC1CCC(c2ccccc2)C1 (relative stereo) [Example 338, methyl cis-3-((methylsulfonyl)amino)-2-(((3-phenylcyclopentyl)oxy)methyl)-piperidine-1-carboxylate]
11	101	–	–	CCNC(=O)N1CCC[C@H](NS(C)(=O)=O)[C@@H]1COC1CCC(c2ccccc2)C1 (relative stereo) [Example 339, cis-N-ethyl-3-((methylsulfonyl)amino)-2-(((3-phenylcyclopentyl)oxy)methyl)-piperidine-1-carboxamide]
13	103	–	–	CC(C)OC(=O)N1CCC[C@H](NS(C)(=O)=O)[C@@H]1CO[C@@H]1CCN(c2ncccn2)C[C@H]1F (relative stereo) [Example 341, isopropyl cis-2-(((trans-3-fluoro-1-(pyrimidin-2-yl)piperidin-4-yl)oxy)methyl)-3-((methylsulfonyl)amino)piperidine-1-carboxylate]
30	104	–	–	CC(C)OC(=O)N1CCC[C@H](NS(C)(=O)=O)[C@@H]1CO[C@H]1CCN(c2ncccn2)C[C@H]1F (relative stereo) [Example 342, isopropyl cis-2-(((cis-3-fluoro-1-(pyrimidin-2-yl)piperidin-4-yl)oxy)methyl)-3-((methylsulfonyl)amino)piperidine-1-carboxylate]
22	93	–	–	CC(C)OC(=O)N1CCC[C@H](NS(C)(=O)=O)[C@@H]1CO[C@@H]1CCN(c2ncccn2)[C@H](C)C1 (stereo in doubt) [Example 329, isopropyl cis-2-(((cis-2-methyl-1-(pyrimidin-2-yl)piperidin-4-yl)oxy)methyl)-3-((methylsulfonyl)amino)piperidine-1-carboxylate]
–	–	44	106	CC(=O)N1CCC[C@H](NS(C)(=O)=O)[C@@H]1CO[C@H]1CC[C@@H](c2ccccc2)CC1 [Example 4, N-((2R,3S)-1-acetyl-2-(((cis-4-phenylcyclohexyl)oxy)methyl)piperidin-3-yl)methanesulfonamide]
–	–	250	100	CS(=O)(=O)N[C@H]1CCCN[C@H]1CO[C@H]1CC[C@@H](c2cc(F)cc(F)c2)CC1 [Example 7, N-((2R,3S)-2-(((cis-4-(3,5-difluorophenyl)cyclohexyl)oxy)methyl)piperidin-3-yl)methanesulfonamide]
–	–	5.6	96	CC(=O)N1CCC[C@H](NS(C)(=O)=O)[C@@H]1CO[C@H]1CC[C@@H](c2cc(F)cc(F)c2)CC1 [Example 8, N-((2R,3S)-1-acetyl-2-(((cis-4-(3,5-difluorophenyl)cyclohexyl)oxy)methyl)piperidin-3-yl)methanesulfonamide]
–	–	220	113	CS(=O)(=O)N[C@H]1CCCN[C@H]1CO[C@H]1CC[C@@H](c2cc(F)ccc2F)CC1 [Example 10, N-((2R,3S)-2-(((cis-4-(2,5-difluorophenyl)cyclohexyl)oxy)methyl)piperidin-3-yl)methanesulfonamide]
–	–	2	114	COC(=O)N1CCC[C@H](NS(C)(=O)=O)[C@@H]1CO[C@H]1CC[C@@H](c2cc(F)ccc2F)CC1 [Example 11, methyl (2R,3S)-2-(((cis-4-(2,5-difluorophenyl)cyclohexyl)oxy)methyl)-3-((methylsulfonyl)amino)piperidine-1-carboxylate]
–	–	130	115	CS(=O)(=O)N[C@H]1CCCN[C@H]1CO[C@H]1CC[C@@H](c2c(F)cccc2F)CC1 [Example 13, N-((2R,3S)-2-(((cis-4-(2,6-difluorophenyl)cyclohexyl)oxy)methyl)piperidin-3-yl)methanesulfonamide]
–	–	6.6	105	CC(=O)N1CCC[C@H](NS(C)(=O)=O)[C@@H]1CO[C@H]1CC[C@@H](c2c(F)cccc2F)CC1 [Example 14, N-((2R,3S)-1-acetyl-2-(((cis-4-(2,6-difluorophenyl)cyclohexyl)oxy)methyl)piperidin-3-yl)methanesulfonamide]
–	–	0.84	99	CS(=O)(=O)N[C@H]1CCCN(C(=O)C2CC2)[C@H]1CO[C@H]1CC[C@@H](c2cccc(F)c2)CC1 [Example 16, N-((2R,3S)-1-(cyclopropylcarbonyl)-2-(((cis-4-(3-fluorophenyl)cyclohexyl)oxy)methyl)piperidin-3-yl)methanesulfonamide]
–	–	520	96	CS(=O)(=O)N[C@H]1CCCN[C@H]1CO[C@H]1CC[C@@H](c2cccc(F)c2F)CC1 [Example 18, N-((2R,3S)-2-(((cis-4-(2,3-difluorophenyl)cyclohexyl)oxy)methyl)piperidin-3-yl)methanesulfonamide]
–	–	12	102	CC(=O)N1CCC[C@H](NS(C)(=O)=O)[C@@H]1CO[C@H]1CC[C@@H](c2cccc(F)c2F)CC1 [Example 19, N-((2R,3S)-1-acetyl-2-(((cis-4-(2,3-difluorophenyl)cyclohexyl)oxy)methyl)piperidin-3-yl)methanesulfonamide]
–	–	–	100	COC(=O)N1CCC[C@H](NS(C)(=O)=O)[C@@H]1CO[C@H]1CC[C@@H](c2cccc(F)c2F)CC1 [Example 20, methyl (2R,3S)-2-(((cis-4-(2,3-difluorophenyl)cyclohexyl)oxy)methyl)-3-((methylsulfonyl)amino)piperidine-1-carboxylate]
